This is an account of results in patent publication US20230091225A1, “Bifunctional chimeric heterocyclic compounds for targeted degradation of androgen receptors and use thereof” (HINOVA PHARMACEUTICALS INC., priority 2019, published 2023).

The term DC50 denotes the concentration giving 50% degradation. In general, Dmax refers to the greatest extent of degradation seen.

Like-named read-outs stand apart in the source and are kept apart here.

The assay concerns the target T1, androgen receptor (AR) (Homo sapiens, UniProt P10275).
T1 sequence (P10275 1-920): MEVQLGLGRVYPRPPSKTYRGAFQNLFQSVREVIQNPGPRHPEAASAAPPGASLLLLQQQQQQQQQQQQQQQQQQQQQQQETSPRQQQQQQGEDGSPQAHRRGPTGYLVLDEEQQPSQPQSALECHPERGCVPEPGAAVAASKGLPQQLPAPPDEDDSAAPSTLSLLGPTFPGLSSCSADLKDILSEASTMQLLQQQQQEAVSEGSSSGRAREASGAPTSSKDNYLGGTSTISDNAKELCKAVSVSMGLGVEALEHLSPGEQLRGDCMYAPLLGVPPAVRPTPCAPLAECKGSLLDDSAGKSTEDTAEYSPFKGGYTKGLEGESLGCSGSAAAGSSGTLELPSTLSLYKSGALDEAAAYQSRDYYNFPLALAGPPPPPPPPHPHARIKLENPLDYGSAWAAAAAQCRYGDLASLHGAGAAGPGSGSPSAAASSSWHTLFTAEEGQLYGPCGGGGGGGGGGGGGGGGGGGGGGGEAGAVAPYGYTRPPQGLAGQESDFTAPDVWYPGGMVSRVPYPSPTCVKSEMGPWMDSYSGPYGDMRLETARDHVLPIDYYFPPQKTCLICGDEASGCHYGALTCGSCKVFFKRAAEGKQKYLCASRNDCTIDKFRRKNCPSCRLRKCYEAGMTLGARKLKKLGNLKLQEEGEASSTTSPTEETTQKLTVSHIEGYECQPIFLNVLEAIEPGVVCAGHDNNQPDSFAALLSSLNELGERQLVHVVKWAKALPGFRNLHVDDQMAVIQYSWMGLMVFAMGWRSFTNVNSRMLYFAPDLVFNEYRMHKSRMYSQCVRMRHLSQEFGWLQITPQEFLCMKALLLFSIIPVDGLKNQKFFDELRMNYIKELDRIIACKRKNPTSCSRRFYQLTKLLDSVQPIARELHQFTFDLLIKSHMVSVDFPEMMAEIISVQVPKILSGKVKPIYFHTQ
The assay can be described thus: Degradation of androgen receptor (AR) protein in VCaP cells by ELISA. It is filed as cell-based. The note with it: for Dmax: VCaP. A general note: An ELISA detects its analyte on a solid surface through an enzyme-linked reagent.

Setting [1] is: AR degradation, VCaP cells, 16 h, ELISA, Table 3-1, read-out: DC50.
The mark [2] stands for this setting: AR degradation, VCaP cells, 16 h, ELISA, Table 3-1, read-out: Dmax (%).

With `N#Cc1ccc(O[C@H]2CC[C@H](NC(=O)c3ccc(N4CCC5(CCN(C6CCN(c7cc8c(cc7F)C(=O)N(C7CCC(=O)NC7=O)C8=O)CC6)C5)C4)nn3)CC2)cc1Cl` (some centres unmarked) [Compound 166, N-((1r,4r)-4-(3-chloro-4-cyanophenoxy)cyclohexyl)-6-(7-(1-(2-(2,6-dioxopiperidin-3-yl)-6-fluoro-1,3-dioxoisoindolin-5-yl)piperidine-4-yl)-2,7-diazaspiro[4.4]nonan-2-yl)pyridazine-3-formamide], the DC50 under setting [1] was less than 10 nM. Moreover, under setting [2], the Dmax is more than 80%.

On to `CC1(C)[C@H](Oc2ccc(C#N)c(Cl)c2)C(C)(C)[C@H]1N1Cc2nc(C#CC3CCC(N4CC5CC4CN5c4ccc5c(c4)C(=O)N(C4CCC(=O)NC4=O)C5=O)CC3)ccc2C1=O` (single isomer, unassigned) [Compound 353, 2-Chloro-4-((1r,3r)-3-(2-((4-(5-(2-(2,6-dioxopiperidin-3-yl)-1,3-dioxoisoindolin-5-yl)-2,5-diazabicyclo[2.2.1]heptan-2-yl)cyclohexyl)ethynyl)-5-oxo-5,7-dihydro-6H-pyrrolo[3,4-b]pyridin-6-yl)-2,2,4,4-tetramethylcyclobutoxy) benzonitrile], for which the 50% degradation concentration (DC50) under setting [1] is more than 300 nM.

In the case of `CC1(C)[C@H](Oc2ccc(C#N)c(Cl)c2)C(C)(C)[C@H]1N1Cc2nc(C#CC3CCC(N4CC5CC4CN5c4ccc5c(c4)C(=O)N(C4CCC(=O)NC4=O)C5=O)CC3)cnc2C1=O` (some centres unmarked) [Compound 389, 2-Chloro-4-((1r,3r)-3-(2-((4-(5-(2-(2,6-dioxopiperidin-3-yl)-1,3-dioxoisoindolin-5-yl)-2,5-diazabicyclo[2.2.1]heptan-2-yl)cyclohexyl)ethynyl)-5-oxo-5,7-dihydro-pyrrolo[3,4-b]pyrazine-26-yl)-2,2,4,4-tetramethylcyclobutoxy) benzonitrile], the DC50 (AR degradation, VCaP cells, 16 h, ELISA, Table 3-2, read-out: DC50) was more than 300 nM. The maximal degradation (Dmax) (AR degradation, VCaP cells, 16 h, ELISA, Table 3-2, read-out: Dmax (%)) was less than 40%.

For the compound `CC1(C)[C@H](Oc2ccc(C#N)c(Cl)c2)C(C)(C)[C@H]1N1Cc2nc(C#CC3CC(N4CC5CN(c6ccc7c(c6)C(=O)N(C6CCC(=O)NC6=O)C7=O)CC5C4)C3)ccc2C1=O` (some centres unmarked) [Compound 358, 2-chloro-4-((1r,3r)-3-(2-((3-(5-(2-(2,6-dioxopiperidin-3-yl)-1,3-dioxoisoindolin-5-yl)hexahydropyrrolo[3,4-c]pyrrol-2(1H)-yl)cyclobutyl)ethynyl)-5-oxo-5,7-dihydro-6H-pyrrolo[3,4-b]pyridin-6-yl)-2,2,4,4-tetramethylcyclobutoxy)benzonitrile], the DC50 under setting [1] lay in the range of 10 to 100 nM. Under setting [2], the Dmax fell in the range of 60 to 80%.

The compound `N#Cc1ccc(O[C@H]2CC[C@H](NC(=O)c3ccc(N4CCC(CN5CCC6(CC5)CN(c5ccc7c(c5)C(=O)N(C5CCC(=O)NC5=O)C7=O)C6)CC4)nn3)CC2)cc1Br` (some centres unmarked) [Compound 274, N-((1r,4r)-4-(3-bromo-4-cyanophenoxy)cyclohexyl)-6-(4-((2-(2-(2-,2,6-dioxopiperidin-3-yl)-1,3-dioxoisoindolin-5-yl)-2,7-diazaspiro[3.5]nonan-7-yl)methyl)piperidin-1-yl)pyridazine-3-carboxamide] returned a DC50 of less than 10 nM and a Dmax of more than 80%.

`C[C@@H]1CN(C[C@@H]2[C@H]3CN(c4cc5c(cc4F)C(=O)N(C4CCC(=O)NC4=O)C5=O)C[C@@H]23)CCN1c1ccc(C(=O)N[C@H]2CC[C@H](Oc3ccc(C#N)c(Cl)c3)CC2)nn1` (some centres unmarked) [Compound 263]: under setting [1], the half-maximal degradation concentration (DC50) is less than 10 nM. Moreover, the Dmax under setting [2] fell in the range of 60 to 80%.

“4-((1r,3r)-3-(2-((1r,4r)-4-(4-(2,6-dioxopiperidin-3-yl)-1,3-dioxoisoindolin-5-yl)piperazin-1-2-methoxybenzonitrile [Compound 400]”: the “Dmax (%)” value is given as “++++ (key: A: >80%; B: 79%-50%; C: 49%-25%; D: <25%)”. The DC50 (read-out: DC50) was less than 10 nM.

Compound `Cc1cc(O[C@H]2C(C)(C)[C@H](N3Cc4nc(C#C[C@H]5CC[C@H](N6CCN(c7ccc8c(c7)C(=O)N(C7CCC(=O)NC7=O)C8=O)CC6)CC5)ccc4C3=O)C2(C)C)ccc1C#N` (some centres unmarked) [Compound 402] returned a DC50 of less than 10 nM and a Dmax of more than 80%.

`CC1(C)[C@H](Oc2ccc(C#N)c(Cl)c2)C(C)(C)[C@H]1N1Cc2nc(C#CC3CCC(N4CCC5(CN(c6ccc7c(c6)C(=O)N(C6CCC(=O)NC6=O)C7=O)C5)C4)CC3)ccc2C1=O` (some centres unmarked) [Compound 372]: the DC50 under setting [1] is more than 300 nM. In addition, the Dmax under setting [2] is less than 40%.

On to “N-((1r,4r)-4-(3-chloro-4-cyanophenoxy)cyclohexyl)-6-(4-((6-(2-(2,6-dioxopiperidin-3-yl)-6-fluoro-1,3-dioxoisoindolin-5-yl)-2,6-diazaspiro[3.3]heptan-2-yl)methyl)piperidin-1-yl)pyrazine-2-amide [Compound 123]”, for which the “Dmax (%)” value is listed as “++++ (key: A: >80%; B: 79%-50%; C: 49%-25%; D: <25%)”. Further, the DC50 (read-out: DC50) was less than 10 nM.

For the compound `N#Cc1ccc(O[C@H]2CC[C@H](NC(=O)c3cnc(N4CCC(CN5CCC6(CC5)CN(c5ccc7c(c5)C(=O)N(C5CCC(=O)NC5=O)C7=O)C6)CC4)nn3)CC2)cc1Br` (some centres unmarked) [Compound 419], the “Dmax (%)” value was “++++ (key: A: >80%; B: 79%-50%; C: 49%-25%; D: <25%)”. For the setting “read-out: DC50”, the DC50 was less than 10 nM.

Take `N#Cc1ccc(OC2CCC(NC(=O)c3cnc(N4CCN(CC5[C@H]6CN(c7cc8c(cc7F)C(=O)N(C7CCC(=O)NC7=O)C8=O)C[C@@H]56)CC4)cn3)CC2)cc1C(F)(F)F` (some centres unmarked) [Compound 94]: the “Dmax (%)” value is “+++ (key: ++++: >80%; +++: 80%-60%; ++: 60%-40%; +: <40%)”. The DC50 (read-out: DC50) is 10 to 100 nM.

As to `N#Cc1ccc(O[C@H]2CC[C@H](NC(=O)c3ccc(N4CC5(CCN(C6CCN(c7cc8c(cc7F)C(=O)N(C7CCC(=O)NC7=O)C8=O)CC6)C5)C4)nn3)CC2)cc1Cl` (some centres unmarked) [Compound 81, N-((1r,4r)-4-(3-chloro-4-cyanophenoxy)cyclohexyl)-6-(6-(1-(2-(2,6-dioxopiperidin-3-yl)-6-fluoro-1,3-dioxoisoindolin-5-yl)piperidine-4-yl)-2,6-diazaspiro[3.4]octan-2-yl)pyridazine-3-formamide], the Dmax is more than 80%. For the same compound, the 50% degradation concentration (DC50) under setting [1] was less than 10 nM.

On to `N#Cc1ccc(O[C@H]2CC[C@H](NC(=O)c3cnc(N4CCC(N5CCC6(CC5)CN(c5cc7c(cc5F)C(=O)N(C5CCC(=O)NC5=O)C7=O)C6)CC4)cn3)CC2)cc1Cl` (some centres unmarked) [Compound 287, N-((1r,4r)-4-(3-chloro-4-cyanophenoxy)cyclohexyl)-5-(4-(2-(2-(2,6-dioxopiperidin-3-yl)-6-fluoro-1,3-dioxoisoindolin-5-yl)-2,7-diazaspiro[3.5]nonan-7-yl)piperidin-1-yl)pyrazine-2-carboxamide], for which, under setting [1], the DC50 was less than 10 nM. The Dmax under setting [2] is more than 80%.

Consider `CC(=O)O[C@@H]1CC(C(=O)N[C@@H](C)c2ccc(-c3scnc3C)cc2)N(C(=O)[C@@H](NC(=O)COCCN2CCN(c3ccc4c(c3)CN([C@H]3C(C)(C)[C@H](Oc5ccc(C#N)c(Cl)c5)C3(C)C)C4=O)CC2)C(C)(C)C)C1` (stereo partly drawn) [Compound 2, (3R,5S)-1-((S)-2-(2-(2-(4-(2-((1R,3R)-3-(3-chloro-4-cyanophenoxy)-2,2,4,4-tetramethylcyclobutyl)-1-oxoisoindolin-5-yl)piperazin-1-yl)ethoxy)acetylamino)-3,3-dimethylbutyryl)-5-(((S)-1-(4-(4-methylthiazol-5-yl)phenyl)ethyl)carbamoyl) pyrrolidin-3-yl acetate], for which the inhibition at 0.1 µM (percentage of degraded AR at 100 nM, VCaP cells, 16 h, ELISA, read-out: % degradation) was less than 25%.

As for `C[C@H]1CN(c2ccc(C(=O)N[C@H]3CC[C@H](Oc4ccc(C#N)c(Cl)c4)CC3)nn2)CCN1C[C@H]1[C@@H]2CN(c3cc4c(cc3F)C(=O)N(C3CCC(=O)NC3=O)C4=O)C[C@@H]21` (some centres unmarked) [Compound 168], the half-maximal degradation concentration (DC50) under setting [1] was less than 10 nM. The Dmax under setting [2] was more than 80%.

For `CC1(C)[C@H](Oc2ccc(C#N)c(Cl)c2)C(C)(C)[C@H]1N1Cc2nc(C#CC3CCC(N4CC5(CCN(c6ccc7c(c6)C(=O)N(C6CCC(=O)NC6=O)C7=O)CC5)C4)CC3)ccc2C1=O` (some centres unmarked) [Compound 376, 2-Chloro-4-((1r,3r)-3-(2-((4-(7-(2-(2,6-dioxopiperidin-3-yl)-1,3-dioxoisoindolin-5-yl)-2,7-diazaspiro[3.5]nonan-2-yl)cyclohexyl)ethynyl)-S-oxo-5,7-dihydro-pyrrolo[3,4-b]pyridin-6-yl)-2,2,4,4-tetramethylcyclobutoxy) benzonitrile], the “Dmax (%)” value (AR degradation, VCaP cells, 16 h, ELISA, Table 3-1) is “++ (60%-40%)”. Also, the DC50 under setting [1] was more than 300 nM.
